Experimental data taken from patent US7880007B2, “Bicyclic substituted phenyl piperidine modulators of muscarinic receptors” (Vertex Pharmaceuticals Incorporated, priority 2004, dated 2011).

How the values were obtained:
Format in all cases: cell-based
M4 muscarinic receptor = target: T1, M4 muscarinic receptor (Homo sapiens, UniProt P08173); experiment: Functional mobilization of intracellular calcium (FLIPR), M4-CHO cells; conditions: for Emax: 100% efficacy = maximum response obtained with the Carbachol control; for M4 Activity: M4-CHO cells, calcium mobilization (FLIPR)
T1 construct: expressed in transfected cells; host or cells: CHO (M4-CHO)
T1 sequence (P08173 1-479): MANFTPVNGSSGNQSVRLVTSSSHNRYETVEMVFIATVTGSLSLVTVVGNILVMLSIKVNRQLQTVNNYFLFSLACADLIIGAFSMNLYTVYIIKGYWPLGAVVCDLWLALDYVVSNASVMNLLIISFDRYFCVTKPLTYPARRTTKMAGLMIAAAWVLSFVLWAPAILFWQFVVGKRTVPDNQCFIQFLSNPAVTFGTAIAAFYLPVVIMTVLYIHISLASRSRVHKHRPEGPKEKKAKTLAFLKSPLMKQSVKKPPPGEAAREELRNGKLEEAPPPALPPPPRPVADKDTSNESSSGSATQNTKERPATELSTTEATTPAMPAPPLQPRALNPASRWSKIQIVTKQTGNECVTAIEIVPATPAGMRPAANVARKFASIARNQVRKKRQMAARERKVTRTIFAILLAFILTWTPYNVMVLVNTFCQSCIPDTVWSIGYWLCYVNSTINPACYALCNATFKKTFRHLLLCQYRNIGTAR
Outline: (§1)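 FLIPR fluorescence (ex 488, em 540 nm) recorded 60 sec after compound addition to dye-loaded CHO cells. Agonist mode: compound alone. Antagonist mode: 15 min compound pre-incubation, then carbachol at EC80, or co-application. Efficacy expressed as % of maximal carbachol response.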

M3 muscarinic receptor = target: T2, M3 muscarinic receptor (Homo sapiens, UniProt P20309); experiment: Functional mobilization of intracellular calcium (FLIPR), M3-CHO cells; conditions: for Emax: 100% efficacy = maximum response obtained with the Carbachol control; for M3 Activity: M3-CHO cells, calcium mobilization (FLIPR)
T2 construct: expressed in transfected cells; host or cells: CHO (M3-CHO)
Outline: as §1

M1 muscarinic receptor = target: T3, M1 muscarinic receptor (Homo sapiens, UniProt P11229); experiment: Functional mobilization of intracellular calcium (FLIPR), M1-CHO cells; conditions: for Emax: 100% efficacy = maximum response obtained with the Carbachol control; for M1 Activity: M1-CHO cells, calcium mobilization (FLIPR)
T3 construct: expressed in transfected cells; host or cells: CHO (M1-CHO)
T3 sequence (P11229 1-460): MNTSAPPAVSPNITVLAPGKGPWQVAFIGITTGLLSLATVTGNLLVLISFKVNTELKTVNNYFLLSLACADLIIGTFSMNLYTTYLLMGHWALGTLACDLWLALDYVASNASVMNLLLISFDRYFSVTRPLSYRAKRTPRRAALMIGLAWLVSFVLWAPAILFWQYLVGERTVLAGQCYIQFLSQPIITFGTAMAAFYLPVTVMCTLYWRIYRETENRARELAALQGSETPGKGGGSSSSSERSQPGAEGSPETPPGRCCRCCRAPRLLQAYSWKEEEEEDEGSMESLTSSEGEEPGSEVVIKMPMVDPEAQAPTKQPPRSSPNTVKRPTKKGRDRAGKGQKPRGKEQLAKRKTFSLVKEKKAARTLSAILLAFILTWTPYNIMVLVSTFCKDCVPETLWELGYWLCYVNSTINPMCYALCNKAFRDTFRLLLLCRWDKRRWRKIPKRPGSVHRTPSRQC
Outline: as §1

M2 muscarinic receptor = target: T4, M2 muscarinic receptor (Homo sapiens, UniProt P08172); experiment: Functional mobilization of intracellular calcium (FLIPR), M2-CHO cells; conditions: for Emax: 100% efficacy = maximum response obtained with the Carbachol control; for M2 Activity: M2-CHO cells, calcium mobilization (FLIPR)
T4 construct: expressed in transfected cells; host or cells: CHO (M2-CHO)
T4 sequence (P08172 1-466): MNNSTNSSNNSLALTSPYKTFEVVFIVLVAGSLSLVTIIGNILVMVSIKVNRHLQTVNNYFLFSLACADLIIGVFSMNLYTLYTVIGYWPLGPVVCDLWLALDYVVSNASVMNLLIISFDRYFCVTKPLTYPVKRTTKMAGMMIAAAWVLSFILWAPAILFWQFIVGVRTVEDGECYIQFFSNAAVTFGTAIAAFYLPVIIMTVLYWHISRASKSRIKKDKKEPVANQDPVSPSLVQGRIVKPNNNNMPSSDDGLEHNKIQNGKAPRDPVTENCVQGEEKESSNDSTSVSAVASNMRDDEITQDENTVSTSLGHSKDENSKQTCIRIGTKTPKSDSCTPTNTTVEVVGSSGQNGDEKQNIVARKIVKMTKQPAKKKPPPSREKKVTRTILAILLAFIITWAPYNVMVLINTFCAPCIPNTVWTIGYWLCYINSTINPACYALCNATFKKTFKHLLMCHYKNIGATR
Outline: as §1

T2 sequence (P20309 whole entry): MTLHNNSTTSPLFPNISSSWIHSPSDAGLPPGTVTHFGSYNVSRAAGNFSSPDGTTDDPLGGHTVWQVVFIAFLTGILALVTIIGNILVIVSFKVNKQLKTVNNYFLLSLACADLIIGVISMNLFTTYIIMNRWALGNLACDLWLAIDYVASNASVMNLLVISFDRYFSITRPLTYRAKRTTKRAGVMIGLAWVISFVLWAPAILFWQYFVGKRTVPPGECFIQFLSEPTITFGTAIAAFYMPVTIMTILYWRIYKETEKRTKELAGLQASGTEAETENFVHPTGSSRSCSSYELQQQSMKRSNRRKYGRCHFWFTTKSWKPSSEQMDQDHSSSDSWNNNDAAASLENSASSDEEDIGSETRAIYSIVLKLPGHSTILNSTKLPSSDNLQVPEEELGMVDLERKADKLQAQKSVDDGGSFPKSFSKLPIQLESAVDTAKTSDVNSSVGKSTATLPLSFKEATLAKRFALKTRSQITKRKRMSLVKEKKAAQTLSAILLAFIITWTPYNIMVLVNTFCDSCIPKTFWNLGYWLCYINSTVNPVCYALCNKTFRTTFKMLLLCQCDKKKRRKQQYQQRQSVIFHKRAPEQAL

Compound | Emax (M4 muscarinic receptor) [%] | M4 Activity (M4 muscarinic receptor) | Emax (M3 muscarinic receptor) [%] | M3 Activity (M3 muscarinic receptor) | Emax (M1 muscarinic receptor) [%] | M1 Activity (M1 muscarinic receptor) | Emax (M2 muscarinic receptor) [%] | M2 Activity (M2 muscarinic receptor)
CCOC(=O)N1CCC(CN2CCC(c3cc(-c4ccc5c(c4)OCO5)ccc3OC)CC2)CC1 [Compound 297] | 25 to 100 | ++ (activity was measured to be from 1.0 μM to 5.0 μM) | < 25 | + (activity was measured to be greater than 5.0 μM) | 25 to 100 | ++ (activity was measured to be from 1.0 μM to 5.0 μM) | < 25 | + (activity was measured to be greater than 5.0 μM)
CCOC(=O)N1CCC(CN2CCC(c3cc(-c4ccc(C(=O)NC)c(Cl)c4)ccc3OC)CC2)CC1 [Compound 298] | 25 to 100 | +++ (activity was measured to be less than 1.0 μM) | < 25 | + (activity was measured to be greater than 5.0 μM) | 25 to 100 | ++ (activity was measured to be from 1.0 μM to 5.0 μM) | < 25 | + (activity was measured to be greater than 5.0 μM)
COc1ccc(Cl)cc1C1CCN(C2(C)CCCCC2)CC1 [Compound 300, 4-(5-chloro-2-methoxyphenyl)-1-(1-methylcyclo-hexyl)piperidine] | 25 to 100 | +++ (activity was measured to be less than 1.0 μM) | < 25 | + (activity was measured to be greater than 5.0 μM) | 25 to 100 | ++ (activity was measured to be from 1.0 μM to 5.0 μM) | 25 to 100 | ++ (activity was measured to be from 1.0 μM to 5.0 μM)
Cc1ccccc1-c1ccccc1C1CCN([C@H]2C[C@H]3CC[C@H]2C3)CC1 [Compound 302] | 25 to 100 | ++ (activity was measured to be from 1.0 μM to 5.0 μM) | < 25 | + (activity was measured to be greater than 5.0 μM) | < 25 | + (activity was measured to be greater than 5.0 μM) | < 25 | + (activity was measured to be greater than 5.0 μM)
COc1c(F)cc(F)cc1C1CCN(C2CCOCC2)CC1 [Compound 305] | 25 to 100 | ++ (activity was measured to be from 1.0 μM to 5.0 μM) | < 25 | + (activity was measured to be greater than 5.0 μM) | < 25 | + (activity was measured to be greater than 5.0 μM) | < 25 | + (activity was measured to be greater than 5.0 μM)
CCOC(=O)N1CCC(CN2CCC(c3ccccc3C)CC2)CC1 [Compound 306] | 25 to 100 | +++ (activity was measured to be less than 1.0 μM) | 25 to 100 | +++ (activity was measured to be less than 1.0 μM) | 25 to 100 | +++ (activity was measured to be less than 1.0 μM) | 25 to 100 | +++ (activity was measured to be less than 1.0 μM)
COc1ccccc1C1CCN(CC2CC3C=CC2C3)CC1 (stereo not shown) [Compound 307] | 25 to 100 | +++ (activity was measured to be less than 1.0 μM) |  | + (activity was measured to be greater than 5.0 μM) | 25 to 100 | ++ (activity was measured to be from 1.0 μM to 5.0 μM) | 25 to 100 | + (activity was measured to be greater than 5.0 μM)
